According to patent publication US9090593B2, “Bicyclic compounds as Pim inhibitors” (AMGEN INC., priority 2010, dated 2015):

Key:
[1] = target: T1, full length recombinant Pim-1 protein (Homo sapiens, UniProt P11309); assay: Pim-1 enzyme assay (HTRF, phosphorylation of biotinylated-BAD (S112) peptide); assay type: biochemical; settings: read-out: Pim_1_IC50
T1 construct: by full length recombinant Pim-1, Pim-2, or Pim-3 protein; hexahistidine tag followed by a thrombin cleavage site (N); made in house; host or cells: Sf9 (baculovirus) or E. coli (pET28)
Excerpt: (§1) These cDNAs were used as templates in PCR reactions to produce full-length DNA clones of the PIMs. […] PCR products were digested with […] and EcoRI for Pim-1 and BamHI and EcoRI for Pim-2 and ligated into a modified baculovirus transfer vector (pFastBac1) cleaved with BamHI and EcoRI. For bacterial expression, the same cleaved PCR products encoding Pim-1 or Pim-2 were ligated into a modified E. coli expression vector pET28(a) cleaved with BamHI and EcoRI Amino-terminal hexahistidine tags followed by a thrombin cleavage site were previously added to the vectors using standard methods of molecular biology. Recombinant baculoviruses expressing Pim-1 or Pim-2 were made using standard methods (Fastbac manual, Invitrogen, Carlsbad, Calif.). Infection of Sf9 cells was done at an m.o.i. of greater than 5 for 24-48 h. Cells were harvested by centrifugation and frozen at −80 C. For E. coli expression, cells carrying pET28-His6-Th-Pim-1 or pET28-His6-Th-Pim-2 were picked from a single colony and grown o/n in LB media. The o/n culture was used to inoculate a 2 liter flask with 500 mL media. This was grown o/n and used to inoculate 15-20 liters of Terrific Broth in a New Brunswick Scientific fermentor. The E. coli were grown at 37° C. to and OD600>1.6. The temperature was dropped to 18° C. and o/n expression was induced with 0.5 mM IPTG. Cells were harvested by centrifugation and frozen at −80° C.
(§2) This step was repeated 3× and the resin was transferred to a 2.5 cm glass column. Ten column volumes of wash buffer (0.05 M HEPES, pH 8.0, 0.1 M NaCl, 0.01 M 2-mercaptoethanol, 10% (w/v) glycerol) were applied to the resin followed by 10 column volumes of elution buffer (0.05 M HEPES, pH 8.0, 0.25 M NaCl, 0.01 M 2-mercaptoethanol, 10% (w/v) glycerol, 0.1 M imidazole). Fractions were analyzed by SDS-PAGE and those containing the protein of interest were pooled and concentrated. The concentrated protein was applied to an Amersham Superdex 75 (XK 26/60) column equilibrated in 0.025 M Tris-HCl, pH 7.5, 0.1 M NaCl, 0.01 M 2-mercaptoethanol, 10% (w/v) glycerol. […] Fractions containing the monomeric protein of interest were pooled, concentrated to ˜2 mg/mL, and stored at −80° C.
(§3) The phosphorylation of biotinylated-BAD (S112) peptide by full length recombinant Pim-1, Pim-2, or Pim-3 protein was detected with streptavidin:Allophycocyanin (APC) conjugate and a europium (Eu) labeled antibody directed against phosphorylated-BAD (S112). […] The fluorescence is directly proportional to the amount of phosphorylated BAD peptide present in the reaction.
(§4) A reference compound was included on each assay plate in order to validate that plate; on one plate of every assay run, two additional reference compounds were included.
(§5) The final buffer conditions were as follows: 60 mM Hepes, pH 7.0, 0.05% BSA, 2 mM DTT. […] The reaction was stopped by the addition of 3 mM EDTA, and fluorescence was measured by an HTRF® Rubystar microplate reader. For each plate, percent of control (POC) values were calculated for each well. Values for the IC50 IP were estimated using a standard 4-parameter logistic model.

[2] = target: T2, full length recombinant Pim-2 protein (Homo sapiens, UniProt Q9P1W9); assay: Pim-2 enzyme assay (HTRF, phosphorylation of biotinylated-BAD (S112) peptide); assay type: biochemical; settings: read-out: Pim2_IC50
T2 construct: by full length recombinant Pim-1, Pim-2, or Pim-3 protein; hexahistidine tag followed by a thrombin cleavage site (N); made in house; host or cells: Sf9 (baculovirus) or E. coli (pET28)
Excerpt: as §1, §2, §3, §4, §5

T1 sequence (P11309 whole entry): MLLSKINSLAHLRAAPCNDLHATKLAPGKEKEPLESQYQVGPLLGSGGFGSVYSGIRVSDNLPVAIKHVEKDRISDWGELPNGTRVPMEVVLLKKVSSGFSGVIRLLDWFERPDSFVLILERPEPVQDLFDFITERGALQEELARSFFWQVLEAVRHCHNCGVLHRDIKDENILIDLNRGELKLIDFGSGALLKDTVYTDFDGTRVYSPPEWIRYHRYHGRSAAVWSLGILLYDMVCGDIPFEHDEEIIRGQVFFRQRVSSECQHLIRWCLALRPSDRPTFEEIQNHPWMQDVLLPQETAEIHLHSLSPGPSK
T2 sequence (Q9P1W9 whole entry): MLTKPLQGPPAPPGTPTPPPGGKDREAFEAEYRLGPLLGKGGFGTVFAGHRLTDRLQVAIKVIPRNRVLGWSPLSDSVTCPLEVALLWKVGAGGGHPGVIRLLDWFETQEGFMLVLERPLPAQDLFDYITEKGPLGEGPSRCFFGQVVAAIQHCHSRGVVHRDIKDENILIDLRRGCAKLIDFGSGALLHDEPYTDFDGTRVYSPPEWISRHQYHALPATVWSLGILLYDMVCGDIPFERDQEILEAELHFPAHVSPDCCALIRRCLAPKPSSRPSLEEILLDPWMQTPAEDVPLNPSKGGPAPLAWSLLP

SMILES | IC50 [1] [nM] | IC50 [2] [nM]
O=C(NC1CC1)c1ccc(F)c(-c2ccc3[nH]nc(-c4cncc(OCCF)n4)c3c2)c1 [Example 389] | 173 | 200
COc1cc(-c2c[nH]c3ccc(-c4c(F)cccc4F)cc23)nc(N2CCOCC2)n1 [Example 562] | > 1000 | > 1000
CN(C)c1nc(-c2c[nH]c3ccc(-c4c(F)cccc4F)cc23)cc(=O)[nH]1 [Example 492] | 46 | 109
CC(CO)c1ccc2c(c1)c(-c1cncc(O[C@H]3CNCCC34CC4)n1)nn2C (stereo partly drawn) [Example 271, 2-(3-(6-((4R)-6-azaspiro[25]oct-4-yloxy)-2-pyrazinyl)-1-methyl-1H-indazol-5-yl)-1-propanol] | 159 | 200
O=c1cc(-c2n[nH]c3ccc(-c4c(F)cccc4F)cc23)nc[nH]1 [Example 530] | 834 | 565
COc1cc(-c2c[nH]c3ccc(-c4c(F)cccc4F)cc23)nc(O[C@@H]2CCCNC2)n1 [Example 493] | 834 | 653
FCCOc1cncc(-c2n[nH]c3ccc(-c4nccc(C5CC5)n4)cc23)n1 [Example 385] | 56 | 457
Cc1ccc(C(F)(F)F)cc1-c1ccc2[nH]cc(-c3cncc(O[C@@H]4CCCNC4)n3)c2c1 [Example 353] | 159 | 889
Nc1ccc(Oc2ncccc2-c2ccc3[nH]cc(-c4cncc(O[C@@H]5CCCNC5)n4)c3c2)cc1 [Example 337] | 56 | 592
C#Cc1ccccc1-c1ccc2[nH]nc(-c3cncc(O[C@H]4CNCCC45CC5)n3)c2c1 [Example 266, 3-(6-((4R)-6-azaspiro[25]oct-4-yloxy)-2-pyrazinyl)-5-(2-ethynylphenyl)-1H-indazole bis(2,2,2-trifluoroacetate)] | 13 | 44
CC(C)Nc1nc(-c2c[nH]c3ccc(-c4c(F)cccc4F)cc23)cc(=O)[nH]1 [Example 500] | 9 | 19
CC(C)Oc1cncc(-c2ccc3[nH]cc(-c4nnc(N[C@@H]5CCNC5)o4)c3c2)n1 [Example 512] | 47 | 93
COc1cncc(-c2n[nH]c3ccc(-c4cnn(C(C)C)c4)cc23)n1 [Example 388] | 116 | 124
N#Cc1ccc2[nH]nc(-c3cncc(N[C@@H]4CCCNC4)n3)c2c1 [Example 540] | 70 | 396
CC(C)Cc1ccc(-c2ccc3[nH]cc(-c4cncc(O[C@@H]5CCCNC5)n4)c3c2)cc1 [Example 332] | 43 | 156
COc1ccc(OC)c(-c2ccc3[nH]cc(-c4cncc(O[C@@H]5CCCNC5)n4)c3c2)c1 [Example 329] | 83 | 514
CN(C)C(=O)c1ccc2[nH]nc(-c3cncc(NC4CCNCC4)n3)c2c1 [Example 487] | 159 | 217
CC(C)c1ccc(-c2ccc3[nH]cc(-c4cncc(O[C@@H]5CCCNC5)n4)c3c2)cc1 [Example 322] | 31 | 99
CN(C)C(=O)c1ccc2[nH]nc(-c3cncc(N[C@@H]4CCCNC4)n3)c2c1 [Example 494] | 834 | > 1000
N#Cc1ccc(-c2ccc3[nH]cc(-c4cncc(O[C@@H]5CCCNC5)n4)c3c2)cc1F [Example 296] | 37 | 55
CC(C)Oc1cncc(-c2ccc3[nH]cc(-c4nnc(N[C@H]5CCCNC5)o4)c3c2)n1 [Example 514] | 52 | 194
Fc1cccc(F)c1-c1ccc2[nH]nc(-c3cncc(CC4CCCNC4)n3)c2c1 (single isomer, unassigned) [Example 274, 5-(2,6-difluorophenyl)-3-(6-(3-piperidinylmethyl)-2-pyrazinyl)-1H-indazole] | 20 | 90

SMILES | IC50 [1] [nM] | IC50 [2] [nM]
COc1cnnc(-c2c[nH]c3ccc(-c4ccccc4F)nc23)c1 [Example 286, 5-(2-fluorophenyl)-3-(5-methoxypyridazin-3-yl)-1H-pyrrolo[3,2-b]pyridine] | 581 | > 1000
O=C(O)c1cccc(-c2ccc3[nH]cc(-c4cncc(O[C@@H]5CCCNC5)n4)c3c2)c1 [Example 325] | 21 | 46
CS(=O)(=O)Nc1cc(-c2ccc3[nH]cc(-c4cncc(O[C@@H]5CCCNC5)n4)c3c2)cnc1Cl [Example 334] | 72 | 149
CC1CCCCN1c1nc(-c2ccc3[nH]cc(-c4cncc(O[C@@H]5CCCNC5)n4)c3c2)cs1 (mixture of isomers) [Example 303] | 158 | 733
CC1CCCCN1c1nc(-c2ccc3[nH]cc(-c4cncc(O[C@@H]5CCCNC5)n4)c3c2)cs1 (stereo partly drawn) [Example 501] | 91 | 812
CN(C)c1cc(=O)[nH]c(-c2c[nH]c3ccc(-c4c(F)cccc4F)cc23)n1 [Example 496] | 159 | > 1000
CC(C)Oc1cncc(-c2ccc3[nH]cc(-c4nnc(NC5CCNCC5)o4)c3c2)n1 [Example 513] | 48 | 218
CCNC(=O)c1ccc(C)c(-c2ccc3[nH]cc(-c4cncc(O[C@@H]5CCCNC5)n4)c3c2)c1 [Example 313] | 234 | 515
CC(C)Oc1cncc(-c2ccc3[nH]cc(-c4nnc(Nc5ccccc5)o4)c3c2)n1 [Example 523] | 359 | > 1000
NC1CCN(c2cc(-c3c[nH]c4ccc(-c5ccccc5F)nc34)nc(O)n2)CC1 [Example 288, 4-(4-aminopiperidin-1-yl)-6-(5-(2-fluorophenyl)-1H-pyrrolo[3,2-b]pyridin-3-yl)pyrimidin-2-ol] | 364 | 968
Fc1cccc(F)c1-c1ccc2[nH]nc(-c3cncc(Oc4cccnc4)n3)c2c1 [Example 246, 5-(2,6-difluorophenyl)-3-(6-(3-pyridinyloxy)-2-pyrazinyl)-1H-indazole] | 551 | 798
COC(=O)c1ccc2[nH]cc(-c3ccnc(N[C@@H]4CCCNC4)n3)c2c1 [Example 533] | 105 | 237
CC(C)C1CCNCC1Oc1cncc(-c2n[nH]c3ccc(-c4c(F)cccc4F)cc23)n1 (single isomer, unassigned) [Example 394] | 30 | 203
COc1cncc(-c2n[nH]c3ccc(-c4nccc(C(C)C)n4)cc23)n1 [Example 377] | 55 | 231
CN(C)C(=O)c1ccc2[nH]nc(-c3cncc(O[C@@H]4CCCNC4)n3)c2c1 [Example 556] | > 1000 | > 1000
CC1CCN(c2cccc(-c3ccc4[nH]cc(-c5cncc(O[C@@H]6CCCNC6)n5)c4c3)n2)CC1 [Example 304] | 52 | 619
CN(C)c1cnc(-c2ccc3[nH]cc(-c4cncc(O[C@@H]5CCCNC5)n4)c3c2)cn1 [Example 319] | 24 | 68
C[C@@H]1CN(c2ccc3[nH]nc(-c4cncc(O[C@H]5CNCCC56CC6)n4)c3c2)CCO1 [Example 401] | 30 | 58
O[C@@H]1CN(c2cncc(-c3n[nH]c4ccc(-c5c(F)cccc5F)cc34)n2)CC[C@@H]1O (single isomer, unassigned) [Example 250, cis-1-(6-(5-(2,6-difluorophenyl)-1H-indazol-3-yl)-2-pyrazinyl)-3,4-piperidinediol] | 46 | 309
CC(C)Oc1cncc(-c2ccc3[nH]cc(-c4nnc(N5CCC[C@@H](N)C5)o4)c3c2)n1 [Example 525] | 70 | 
c1cnc(N2CCOCC2)c(-c2ccc3[nH]cc(-c4cncc(O[C@@H]5CCCNC5)n4)c3c2)c1 [Example 338] | 69 | 
